Data set [1] is described as follows: acute toxicity test in mice by intravenous administration. As to conditions: mouse, in vivo.
Data set [2] deals with T1, elastase from human neutrophil (Homo sapiens, UniProt P08246).
T1 construct: using elastase from human neutrophil; from tissue; host or cells: human neutrophil
T1 sequence (P08246 30-247 limits assumed): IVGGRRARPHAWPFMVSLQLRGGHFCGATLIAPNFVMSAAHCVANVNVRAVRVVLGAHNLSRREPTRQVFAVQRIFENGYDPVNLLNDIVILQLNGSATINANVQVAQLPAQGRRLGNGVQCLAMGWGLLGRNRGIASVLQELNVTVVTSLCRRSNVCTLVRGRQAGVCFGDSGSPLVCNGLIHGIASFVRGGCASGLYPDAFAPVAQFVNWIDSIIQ
Description: Inhibitory effect on elastase (spectrophotometric method, substrate Suc-Ala-Pro-Ala-pNA). Conditions: for IC50: pH 8.0, 37° C., 30 minutes. The format is biochemical.
Description: The test was carried out by the slight modification of the method of Bieth et al [see Biochem. Med., 75, 350 (1974)] using elastase from human neutrophil.
The reaction mixture consisted of 1 mM Suc-Ala-Pro-Ala-pNA (dissolving in N-methylpyrrolidone to the concentration of 100 mM, and then adding 1/100 amount of the solution to the reaction mixture.), 0.1 M buffer solution of tris-hydrochloric acid (pH 8.0), 0.2 M sodium chloride aqueous solution, the sample solution of various concentrations and enzyme solution in a final volume of 1.0 ml was incubated at 37° C. for 30 minutes.
The reaction was stopped by the addition of 100 μl of 50% acetic acid into the reaction mixture, and then p-nitro anilide released was measured on absorbance of 405 nm.
Inhibition percentage of the test compounds was caliculated by the following equation: [formula]

Setting [3] is: Y represents an oxygen atom, read-out: Inhibitory Effect on Elastase, IC50.
The mark [4] stands for this setting: Y represents a sulfur atom, read-out: Elastase Inhibitory Effect, IC50.
Where [5] appears, read: at 50 μg/ml, Y represents a sulfur atom, read-out: Elastase Inhibitory Effect, Inhibition %.

The structures appear in SMILES notation. Like-named read-outs stand apart in the source and are kept apart here.

Broadly, the LD50 is the dose expected to kill half of the subjects tested. `CCN(CC)S(=O)(=O)c1ccc(SC(=O)c2ccc(NC(=N)N)cc2)cc1Cl`: in data set [1], the LD50 fell in the range of 50 to 150 mg/kg.

As a reminder, the inhibition is the percentage by which the read-out fell short of the control. On to `N=C(N)Nc1ccc(C(=O)Oc2ccccc2)cc1` [hydrogen, reference compound], for which the inhibition at 50 µg/mL in data set [2] (at 50 μg/ml (footnote 2), Y represents an oxygen atom, read-out: Inhibitory Effect on Elastase, Inhibition %) worked out at 54.6%. This compound returned an LD50 in data set [1] of 50 to 150 mg/kg. A word on the IC50: it is the concentration needed to halve the response being measured. `N=C(N)Nc1ccc(C(=O)Oc2cc(Cl)ccc2Cl)cc1` [Example 37]: the IC50 in data set [2] (setting [3]) came out at 1.1 µM. Further, testing at 100 µM in data set [2] (Y represents an oxygen atom) gave an inhibition of 85.8%. This compound displayed an LD50 in data set [1] of 50 to 150 mg/kg. Take `N=C(N)Nc1ccc(C(=O)Sc2cc(Cl)ccc2Cl)cc1` [Example 135, p-guanidinobenzoic acid 2,5-dichlorothiophenyl ester methanesulfonate]: the IC50 in data set [2] (setting [4]) worked out at 0.1 µM. For the same compound, the inhibition at 50 µg/mL in data set [2] (setting [5]) is 92.1%. Moreover, the LD50 in data set [1] lay within 50 to 150 mg/kg. On to `CC(=O)O.CCS(=O)(=O)Oc1cc(Cl)cc(OC(=O)c2ccc(NC(=N)N)cc2)c1` [Example 75, p-guanidinobenzoic acid 3-chloro-5-ethanesulfonyloxyphenyl ester acetate], for which, in data set [2] (setting [3]), the IC50 came to 1.1 µM. This compound returned an LD50 in data set [1] of 50 to 150 mg/kg. `N=C(N)Nc1ccc(C(=O)Sc2cc(O)cc(Cl)c2)cc1` [3-chloro-5-hydroxy (Y = sulfur atom)]: the LD50 in data set [1] is 50 to 150 mg/kg. Take `CS(=O)(=O)O.N=C(N)Nc1ccc(C(=O)Oc2cc(O)cc(Cl)c2)cc1` [Example 112, p-guanidinobenzoic acid 3-chloro-5-hydroxyphenyl ester methanesulfonate]: in data set [2] (setting [3]), the IC50 amounted to 8.3 µM. Moreover, the LD50 in data set [1] is 50 to 150 mg/kg. For the compound `CCS(=O)(=O)Oc1cc(Cl)cc(SC(=O)c2ccc(NC(=N)N)cc2)c1`, in data set [1], the LD50 was in the range of 50 to 150 mg/kg. On to `CCN(CC)S(=O)(=O)c1ccc(OC(=O)c2ccc(NC(=N)N)cc2)cc1Cl` [Example 94], for which the IC50 in data set [2] (setting [3]) is 22 µM. Also, the LD50 in data set [1] lay in the range of 50 to 150 mg/kg. Regarding `N=C(N)Nc1ccc(C(=O)Oc2cccc(OC(=O)c3ccccc3)c2)cc1` [Example 63], in data set [2] (setting [3]), the IC50 came out at 11 µM. This compound also gave an inhibition at 100 µM in data set [2] (Y represents an oxygen atom) of 78.3%. Consider `N=C(N)Nc1ccc(C(=O)Oc2cc(Cl)cc(OC(=O)c3ccc(NC(=N)N)cc3)c2)cc1` [Example 68], for which the IC50 in data set [2] (setting [3]) worked out at 0.6 µM. `N=C(N)Nc1ccc(C(=O)Oc2cccc(C(F)(F)F)c2)cc1` [Example 46]: the IC50 in data set [2] (setting [3]) is 13 µM. Moreover, at 100 µM the inhibition in data set [2] (Y represents an oxygen atom) was 71.4%. Consider `CCC(C)OC(=O)c1cccc(OC(=O)c2ccc(NC(=N)N)cc2)c1Cl` (stereo not drawn) [Example 22], for which the IC50 in data set [2] (setting [3]) came out at 2.6 µM. Compound `COC(=O)Cc1cccc(OC(=O)c2ccc(NC(=N)N)cc2)c1` [Example 23] had an inhibition at 100 µM in data set [2] (Y represents an oxygen atom) of 15.6%.

Consider `N=C(N)Nc1ccc(C(=O)Oc2ccc(C(=O)c3ccccc3)cc2Cl)cc1` [Example 56], for which the IC50 in data set [2] (setting [3]) turned out to be 48 µM. Further, the inhibition at 100 µM in data set [2] (Y represents an oxygen atom) was determined as 57.1%.

As to `CCN(CC)S(=O)(=O)c1ccccc1OC(=O)c1ccc(NC(=N)N)cc1` [Example 91], in data set [2] (setting [3]), the IC50 was found to be 180 µM.

As for `N=C(N)Nc1ccc(C(=O)Oc2ccccc2Br)cc1` [Example 42], the IC50 in data set [2] (setting [3]) worked out at 16 µM. Also, in data set [2] (Y represents an oxygen atom), 100 µM produced 82.1% inhibition. `N=C(N)Nc1ccc(C(=O)Oc2cc(O)cc(C(=O)NCc3ccccc3)c2)cc1` [Example 115]: the IC50 in data set [2] (setting [3]) stood at 88 µM. In data set [2] (Y represents an oxygen atom), `COc1ccc(OC(=O)c2ccc(NC(=N)N)cc2)cc1` [Example 9] yielded an inhibition at 100 µM of 44.4%.

In the case of `N=C(N)Nc1ccc(C(=O)Sc2ccccc2)cc1` [Example 124], the IC50 in data set [2] (setting [4]) is 2.1 µM. Further, the inhibition at 50 µg/mL in data set [2] (setting [5]) worked out at 94%. For the same compound, in data set [1], the LD50 fell in the range of 50 to 150 mg/kg. Take `CC(C)OC(=O)c1cccc(OC(=O)c2ccc(NC(=N)N)cc2)c1Cl` [Example 21]: the IC50 in data set [2] (setting [3]) turned out to be 2 µM. Turning to `COC(=O)c1cc(O)cc(OC(=O)c2ccc(NC(=N)N)cc2)c1` [Example 111], in data set [2] (Y represents an oxygen atom), the inhibition at 100 µM came out at 45%.

For the origin of these results see US5247084A, “Derivatives of p-guanidinobenzoic acid” (priority 1985, dated 1993).
